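The compound was tested at five concentrations on cells cultured in 96-well plates, with a 48-hour exposure period. Abbreviation: GI50, concentration required for 50% inhibition of growth.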 The source made the active and inactive calls. Rule as the data show it: active = GI50 up to about 1.1 µM and inactive = higher.
Experiments:
Assay in all cases: inhibition of tumour cell growth, NCI panel, 48 h
A549 = tested on: A549
CAKI-1 = tested on: CAKI-1
COLO 205 = tested on: COLO 205
HCC 2998 = tested on: HCC 2998
HCT-116 = tested on: HCT-116
HOP-62 = tested on: HOP-62
HT-29 = tested on: HT-29
MDA-N = tested on: MDA-N
NCI-H522 = tested on: NCI-H522
NCI/ADR-RES = tested on: NCI/ADR-RES
OVCAR-4 = tested on: OVCAR-4
OVCAR-5 = tested on: OVCAR-5
OVCAR-8 = tested on: OVCAR-8
RPMI-8226 = tested on: RPMI-8226
SF-295 = tested on: SF-295
SF-539 = tested on: SF-539
SK-MEL-5 = tested on: SK-MEL-5
SN12C = tested on: SN12C
SNB-19 = tested on: SNB-19
U-251 = tested on: U-251

Compound	GI50 (A549)	GI50 (CAKI-1)	GI50 (COLO 205)	GI50 (HCC 2998)	GI50 (HCT-116)	GI50 (HOP-62)	GI50 (HT-29)	GI50 (MDA-N)	GI50 (NCI-H522)	GI50 (NCI/ADR-RES)	GI50 (OVCAR-4)	GI50 (OVCAR-5)	GI50 (OVCAR-8)	GI50 (RPMI-8226)	GI50 (SF-295)	GI50 (SF-539)	GI50 (SK-MEL-5)	GI50 (SN12C)	GI50 (SNB-19)	GI50 (U-251)
COC(=O)c1c(OC(C)=O)ccc2c1c1c(OC(C)=O)c3ccccc3c(OC(C)=O)c1n2C	29.9 µM (inactive)	17.8 µM (inactive)	29.2 µM (inactive)	23.7 µM (inactive)	19.1 µM (inactive)	24.4 µM (inactive)	38.4 µM (inactive)	32.2 µM (inactive)	12.9 µM (inactive)	30.1 µM (inactive)	19.4 µM (inactive)	38.1 µM (inactive)	22.6 µM (inactive)	16.2 µM (inactive)	21.2 µM (inactive)	20.7 µM (inactive)	6.04 µM (inactive)	53.7 µM (inactive)	39.4 µM (inactive)	24.8 µM (inactive)
COc1cccc(C=C(C#N)C#N)c1OC	> 100 µM (inactive)	> 100 µM (inactive)	> 100 µM (inactive)	> 100 µM (inactive)	> 100 µM (inactive)	> 100 µM (inactive)	> 100 µM (inactive)	> 100 µM (inactive)	> 100 µM (inactive)	> 100 µM (inactive)	> 100 µM (inactive)	> 100 µM (inactive)	> 100 µM (inactive)	43.5 µM (inactive)	> 100 µM (inactive)	> 100 µM (inactive)	> 100 µM (inactive)	> 100 µM (inactive)	> 100 µM (inactive)	> 100 µM (inactive)
CN(C)C(C1=C(O)C(c2ccccc2)N(c2ccccc2)C1=O)N1CCOCC1 (stereo not given)	> 10 µM (inactive)	> 10 µM (inactive)	> 10 µM (inactive)	> 10 µM (inactive)	> 10 µM (inactive)	> 10 µM (inactive)	> 10 µM (inactive)	> 10 µM (inactive)	> 10 µM (inactive)	> 10 µM (inactive)	> 10 µM (inactive)	> 10 µM (inactive)	> 10 µM (inactive)	> 10 µM (inactive)	> 10 µM (inactive)	> 10 µM (inactive)	> 10 µM (inactive)	> 10 µM (inactive)	> 10 µM (inactive)	> 10 µM (inactive)
N=c1oc2ccc(Cl)cc2cc1C(=O)NCc1ccccc1	> 100 µM (inactive)	> 100 µM (inactive)	> 100 µM (inactive)	> 100 µM (inactive)	> 100 µM (inactive)	> 87.3 µM (inactive)	> 100 µM (inactive)	> 81.7 µM (inactive)	24.7 µM (inactive)	27.4 µM (inactive)	> 100 µM (inactive)	> 100 µM (inactive)	> 100 µM (inactive)	> 89.3 µM (inactive)	> 100 µM (inactive)	> 100 µM (inactive)	> 100 µM (inactive)	> 100 µM (inactive)	> 100 µM (inactive)	> 86.3 µM (inactive)
CC(=O)OC1(C)C=CC(=O)C=C1	> 100 µM (inactive)	46 µM (inactive)	> 100 µM (inactive)	> 100 µM (inactive)	80.2 µM (inactive)	27.1 µM (inactive)	63.5 µM (inactive)	31.2 µM (inactive)	10.8 µM (inactive)	6.3 µM (inactive)	53.5 µM (inactive)	40.8 µM (inactive)	24.7 µM (inactive)	37.3 µM (inactive)	37.2 µM (inactive)	18.3 µM (inactive)	40.2 µM (inactive)	62.7 µM (inactive)	48.2 µM (inactive)	13.3 µM (inactive)
CN(C)CCOc1ccc2c(c1)C/C(=C/c1ncc([N+](=O)[O-])n1C)C2=O	1.17 µM (inactive)	2.64 µM (inactive)	1.56 µM (inactive)	2.03 µM (inactive)	1.27 µM (inactive)	2.1 µM (inactive)	1.35 µM (inactive)	3.94 µM (inactive)	0.918 µM (active)	8.36 µM (inactive)	1.53 µM (inactive)	3.51 µM (inactive)	1.43 µM (inactive)	1.37 µM (inactive)	3.1 µM (inactive)	3.97 µM (inactive)	1.64 µM (inactive)	2.58 µM (inactive)	3.39 µM (inactive)	3.51 µM (inactive)
CC(=O)OC/C=C/[C@H](O[Si](C)(C)C(C)(C)C)[C@@H](O)/C=C/COC(C)=O	> 100 µM (inactive)	> 100 µM (inactive)	> 100 µM (inactive)	> 100 µM (inactive)	> 100 µM (inactive)	> 100 µM (inactive)	> 100 µM (inactive)	> 100 µM (inactive)	> 100 µM (inactive)	> 100 µM (inactive)	> 100 µM (inactive)	> 100 µM (inactive)	> 100 µM (inactive)	20.6 µM (inactive)	> 100 µM (inactive)	> 100 µM (inactive)	> 100 µM (inactive)	> 100 µM (inactive)	> 100 µM (inactive)	> 100 µM (inactive)

Source: ChEMBL document CHEMBL1201862, “PubChem BioAssay data set” (2004)
